In ChEMBL document CHEMBL3784958, “Disposition of sodium valproate in epileptic patients” (Br J Clin Pharmacol, 1978):

Key:
[1] = Initial plasma concentration in epileptic patient (6 patients) at 800 mg, iv administered as single dose by gas liquid chromatographic method; assay type: ADME, organism-based; conditions: human
[2] = Elimination rate constant in epileptic patient (6 patients) at 800 mg, iv administered as single dose by gas liquid chromatographic method; assay type: ADME, organism-based; conditions: human, in vivo
[3] = Half life in epileptic patient (6 patients) at 800 mg, iv administered as single dose by gas liquid chromatographic method; assay type: ADME, organism-based; conditions: human, in vivo
[4] = Extrapolated volume of distribution in epileptic patient (6 patients) at 800 mg, iv administered as single dose by gas liquid chromatographic method; assay type: ADME, organism-based; conditions: human, in vivo
[5] = Volume of distribution (area) in epileptic patient (6 patients) at 800 mg, iv administered as single dose by gas liquid chromatographic method; assay type: ADME, organism-based; conditions: human, in vivo
[6] = Apparent volume of distribution in epileptic patient (6 patients) at 800 mg, iv administered as single dose by gas liquid chromatographic method; assay type: ADME, organism-based; conditions: human, in vivo, read-out: Vd(app)
[7] = AUC (0 to 48 hrs) in epileptic patient (6 patients) at 800 mg, iv administered as single dose by gas liquid chromatographic method; assay type: ADME, organism-based; parameters: dose 800 mg, time < 48 hr, route intravenous; conditions: human, in vivo
[8] = AUC (0 to infinity) in epileptic patient (6 patients) at 800 mg, iv administered as single dose by gas liquid chromatographic method; assay type: ADME, organism-based; parameters: dose 800 mg, route intravenous, time infinity; conditions: human, in vivo
[9] = Total clearance in epileptic patient (6 patients) at 800 mg, iv administered as single dose by gas liquid chromatographic method; assay type: ADME, organism-based; conditions: human, in vivo
[10] = Cmax in epileptic patient (6 patients) at 800 mg, po administered as single dose by gas liquid chromatographic method; assay type: ADME, organism-based; parameters: dose 800 mg, route oral; conditions: human, in vivo
[11] = Tmax in epileptic patient (6 patients) at 800 mg, po administered as single dose by gas liquid chromatographic method; assay type: ADME, organism-based; conditions: human, in vivo
[12] = Elimination rate constant in epileptic patient (6 patients) at 800 mg, po administered as single dose by gas liquid chromatographic method; assay type: ADME, organism-based; conditions: human, in vivo
[13] = Half life in epileptic patient (6 patients) at 800 mg, po administered as single dose by gas liquid chromatographic method; assay type: ADME, organism-based; conditions: human, in vivo
Homo sapiens [14] = assay: Extrapolated volume of distribution in epileptic patient (6 patients) at 800 mg, po administered as single dose by gas liquid chromatographic method; assay type: ADME, organism-based; conditions: in vivo
Homo sapiens [15] = assay: Volume of distribution (area) in epileptic patient (6 patients) at 800 mg, po administered as single dose by gas liquid chromatographic method; assay type: ADME, organism-based; conditions: in vivo
[16] = AUC (0 to 48 hrs) in epileptic patient (6 patients) at 800 mg, po administered as single dose by gas liquid chromatographic method; assay type: ADME, organism-based; parameters: dose 800 mg, time < 48 hr, route oral; conditions: human, in vivo
[17] = AUC (0 to infinity) in epileptic patient (6 patients) at 800 mg, po administered as single dose by gas liquid chromatographic method; assay type: ADME, organism-based; parameters: dose 800 mg, route oral, time infinity; conditions: human, in vivo
[18] = Elimination rate constant in healthy volunteer (6 volunteers) at 800 mg, iv administered as single dose by gas liquid chromatographic method; assay type: ADME, organism-based; conditions: human, in vivo
[19] = Half life in healthy volunteer (6 volunteers) at 800 mg, iv administered as single dose by gas liquid chromatographic method; assay type: ADME, organism-based; conditions: human, in vivo
[20] = Volume of distribution (area) in healthy volunteer (6 volunteers) at 800 mg, iv administered as single dose by gas liquid chromatographic method; assay type: ADME, organism-based; conditions: human, in vivo
[21] = Apparent volume of distribution in healthy volunteer (6 volunteers) at 800 mg, iv administered as single dose by gas liquid chromatographic method; assay type: ADME, organism-based; conditions: human, in vivo, read-out: Vd(app)
[22] = Total clearance in healthy volunteer (6 volunteers) at 800 mg, iv administered as single dose by gas liquid chromatographic method; assay type: ADME, organism-based; conditions: human, in vivo
[23] = Tmax in healthy volunteer (6 volunteers) at 800 mg, po administered as single dose by gas liquid chromatographic method; assay type: ADME, organism-based; conditions: human, in vivo
[24] = Oral bioavailability in epileptic patient (6 patients) at 800 mg administered as single dose by gas liquid chromatographic method; assay type: ADME, organism-based; conditions: human, in vivo
Homo sapiens [25] = assay: Toxicity in epileptic patient (6 patients) at 800 mg, po and iv administered as single dose by gas liquid chromatographic method; assay type: organism-based; conditions: in vivo

CCCC(CCC)C(=O)[O-].[Na+] [VALPROATE SODIUM]
C0 [1]: 58.5 µg/mL | k el [2]: 2.21e-05 s⁻¹ | half-life [3]: 9 h | Vd [4]: 13.8 L | Vd [5]: 12.8 L | Vd [6]: 0.175 L/kg | AUC(0-t) at 48 h [7]: 785 µg·h/mL | AUC(0-inf) [8]: 807 µg·h/mL | clearance [9]: 16.7 mL/min | Cmax [10]: 71.8 µg/mL | Tmax [11]: 1.2 h | k el [12]: 2.17e-05 s⁻¹ | half-life [13]: 9 h | Vd (Homo sapiens [14]): 13.1 L | Vd (Homo sapiens [15]): 12.9 L | AUC(0-t) at 48 h [16]: 749 µg·h/mL | AUC(0-inf) [17]: 771 µg·h/mL | k el [18]: 1.52e-05 s⁻¹ | half-life [19]: 12.8 h | Vd [20]: 10 L | Vd [21]: 0.147 L/kg | clearance [22]: 9 mL/min | Tmax [23]: 1.8 h | bioavailability [24]: 96% | Activity (Homo sapiens [25]): Non-toxic
